Calls of active or inactive are those of the source.
Tests used:
[1] = system: Klebsiella pneumoniae; assay: Synergistic bactericidal activity against OXA-48/CTX-M-15/carbapenemase-producing Klebsiella pneumoniae 28 assessed as reduction in bacterial count at MIC measured after 8 hrs in presence of colistin by time kill assay; format: functional, organism-based
[2] = system: Klebsiella pneumoniae; assay: Antibacterial activity against colistin-resistant OXA-48/CTX-M-15/carbapenemase-producing Klebsiella pneumoniae 29 assessed as inhibition of growth at 50 uM after 18 hrs; format: functional, organism-based
[3] = system: Klebsiella pneumoniae; assay: Antibacterial activity against colistin-susceptible NDM-1/carbapenemase-producing Klebsiella pneumoniae by broth microdilution method; format: functional
[4] = system: Escherichia coli; assay: Synergistic antibacterial activity against colistin-susceptible NDM1/KPC-producing Escherichia coli in presence of colistin by checkerboard assay; format: functional
[5] = system: Klebsiella pneumoniae; assay: Antibacterial activity against Klebsiella pneumoniae CECT-997 assessed as inhibition of growth at 50 uM after 18 hrs; format: functional, organism-based
[6] = system: Klebsiella aerogenes; assay: Antibacterial activity against colistin-resistant Enterobacter aerogenes 53 assessed as inhibition of growth at 50 uM after 18 hrs; format: functional, organism-based
[7] = system: Escherichia coli; assay: Bactericidal activity against colistin-susceptible NDM-1/KPC-producing Escherichia coli assessed as reduction in bacterial count at MIC measured after 2 hrs by time kill assay; format: functional, organism-based
[8] = system: Klebsiella pneumoniae; assay: Bactericidal activity against OXA-48/CTX-M-15/carbapenemase-producing Klebsiella pneumoniae 28 assessed as reduction in bacterial count at MIC measured from 4 to 8 hrs in presence of colistin by time kill assay; format: functional, organism-based
[9] = system: Klebsiella pneumoniae; assay: Antibacterial activity against colistin-susceptible VIM1/carbapenemase-producing Klebsiella pneumoniae 07 assessed as inhibition of growth at 50 uM after 18 hrs; format: functional, organism-based
[10] = system: Klebsiella aerogenes; assay: Antibacterial activity against colistin-resistant Enterobacter aerogenes 3 assessed as inhibition of growth at 50 uM after 18 hrs; format: functional, organism-based
[11] = system: Enterobacter cloacae; assay: Antibacterial activity against colistin-resistant Enterobacter cloacae 263 assessed as inhibition of growth at 50 uM after 18 hrs; format: functional, organism-based
[12] = system: Escherichia coli; assay: Bactericidal activity against colistin-susceptible NDM-1/KPC-producing Escherichia coli assessed as reduction in bacterial count at MIC measured after 2 hrs in presence of colistin by time kill assay; format: functional, organism-based
[13] = system: Klebsiella pneumoniae; assay: Antibacterial activity against colistin-resistant VIM1/DHAI/carbapenemase-producing Klebsiella pneumoniae 21 assessed as inhibition of growth at 50 uM after 18 hrs; format: functional, organism-based
[14] = system: Klebsiella pneumoniae; assay: Antibacterial activity against colistin-susceptible OXA-48/CTX-M-15/carbapenemase-producing Klebsiella pneumoniae 28 assessed as inhibition of growth at 50 uM after 18 hrs; format: functional, organism-based
[15] = system: Enterobacter cloacae; assay: Antibacterial activity against colistin-resistant Enterobacter cloacae 280 by broth microdilution method; format: functional
[16] = system: Klebsiella pneumoniae; assay: Antibacterial activity against carbapenemase/Klebsiella pneumoniae CECT-997 by broth microdilution method; format: functional
[17] = system: Enterobacter cloacae; assay: Antibacterial activity against colistin-resistant Enterobacter cloacae 297 by broth microdilution method; format: functional
[18] = system: Klebsiella pneumoniae; assay: Antibacterial activity against colistin-susceptible OXA-48/CTX-M-15/carbapenemase-producing Klebsiella pneumoniae 28 by broth microdilution method; format: functional
[19] = system: Enterobacter cloacae; assay: Antibacterial activity against colistin-resistant Enterobacter cloacae 142 assessed as inhibition of growth at 50 uM after 18 hrs; format: functional, organism-based
[20] = system: Enterobacter cloacae; assay: Antibacterial activity against colistin-resistant Enterobacter cloacae 272 assessed as inhibition of growth at 50 uM after 18 hrs; format: functional, organism-based
[21] = system: Escherichia coli; assay: Antibacterial activity against colistin-susceptible NDM1/KPC-producing Escherichia coli by broth microdilution method; format: functional
[22] = system: Enterobacter cloacae; assay: Antibacterial activity against colistin-resistant Enterobacter cloacae 297 assessed as inhibition of growth at 50 uM after 18 hrs; format: functional, organism-based
[23] = system: Escherichia coli; assay: Antibacterial activity against colistin-susceptible NDM1/KPC-producing Escherichia coli assessed as inhibition of growth at 50 uM after 18 hrs; format: functional, organism-based
[24] = system: Klebsiella pneumoniae; assay: Antibacterial activity against colistin-susceptible NDM-1/carbapenemase-producing Klebsiella pneumoniae assessed as inhibition of growth at 50 uM after 18 hrs; format: functional, organism-based
[25] = system: Klebsiella pneumoniae; assay: Synergistic antibacterial activity against colistin-susceptible NDM-1/carbapenemase-producing Klebsiella pneumoniae in presence of colistin by checkerboard assay; format: functional
[26] = system: Enterobacter cloacae; assay: Antibacterial activity against colistin-resistant Enterobacter cloacae 190 assessed as inhibition of growth at 50 uM after 18 hrs; format: functional, organism-based
[27] = system: Enterobacter cloacae; assay: Antibacterial activity against colistin-resistant Enterobacter cloacae 280 assessed as inhibition of growth at 50 uM after 18 hrs; format: functional, organism-based
[28] = system: Enterobacter cloacae; assay: Antibacterial activity against colistin-resistant Enterobacter cloacae 32 assessed as inhibition of growth at 50 uM after 18 hrs; format: functional, organism-based

NCCCCOc1ccc(Cl)cc1C(=O)Nc1ccc([N+](=O)[O-])cc1Cl
15 µg/mL: MIC [16] | MIC [18] | MIC [21]
active: Activity [1] | growth inhibition (GI) [5] | Activity [7] | Activity [8] | Activity [12] | growth inhibition (GI) [14] | growth inhibition (GI) [22] | growth inhibition (GI) [23] | growth inhibition (GI) [24] | growth inhibition (GI) [27]
0.25: fractional inhibitory concentration index (FICI) [4]
> 15 µg/mL: MIC [3] | MIC [15] | MIC [17]
0.5: fractional inhibitory concentration index (FICI) [25]
inactive: growth inhibition (GI) [2] | growth inhibition (GI) [6] | growth inhibition (GI) [9] | growth inhibition (GI) [10] | growth inhibition (GI) [11] | growth inhibition (GI) [13] | growth inhibition (GI) [19] | growth inhibition (GI) [20] | growth inhibition (GI) [26] | growth inhibition (GI) [28]
